The record followed here is patent publication US5627035A, “Peptides that block human immunodeficiency virus and methods of use thereof” (Syntello Vaccine Development AB, priority 1995, dated 1997).

Where a SMILES comes first, the peptide text is derived from it. Where only a bound is given, the exact number is not on record here.

Series [1] has as its system herpes simplex virus type I (HSV-1) strain McIntyre. Put plainly: Yield inhibition assay of HSV-1 in GMK cells. Format: cell-based. Conditions: plaque reduction and virus yields. The protocol: The yield inhibition assay was performed as follows: HSV-1 was inoculated at a multiplicity of 0.5 pfu per GMK cell in the presence of the respective peptide at concentrations of 250 and 25 μg/ml. Virus adsorption was performed for 60 min. at room temperature. The cells were then rinsed five times with Hanks' Balanced Salt Solution (BSS) and incubated in a 5% CO2 atmosphere at 37° C. with maintenance medium containing either peptides or acyclovir, according to the methods described in "Proceedings of a Symposium on Acyclovir", The American Journal of Medicine, Jul. 20, (1982) which is incorporated herein by reference, or without any additives. Twenty-four hours p.i. the cells were freeze-thawed, scraped into the medium and tested for virus yield by the infectivity assay as outlined in Example 2. The results are shown in Table 7 where the plaque reduction values are the mean of two cultures and the yield of HSV-1 after 24 hours is the mean of two determinations and the values are presented in millions of pfu/ml.

The next series has as its system normal T cells. Put plainly: In vitro proliferative response of normal T cells to mitogens, stimulation index. Type of series: cell-based, human. The method, then: The in vitro proliferative response of normal T cells was examined after concurrent exposure of unfractionated, and T cell enriched (CD4^+ or CD8^+ enriched using DYNABEADS M-450 CD4 and DYNABEADS M-450 CD, magnetic beads according to the manufacturer's instructions, DYNAL A. S. Oslo Norway).
The results are indicated as the stimulation index which is calculated as follows: the ratio between radioactive Thymidine incorporated in cell cultures exposed to mitogen alone or mitogen plus Gly-Pro-Gly divided by the radioactive Thymidine incorporated in identical cell cultures exposed to medium alone.

The nature of series [2]: Humoral anti-TNP antibody response in mice pretreated with Gly-Pro-Gly, ELISA endpoint titer. Format: in vivo. Conditions: 5 mg/day/animal for 5 days. The protocol: The effects of Gly-Pro-Gly on development of humoral specific antibody responses was examined in mice. For this purpose, Gly-Pro-Gly was administered in adult (4 weeks old, sex matched) Swiss albino outbred mice by intraperitoneal injections given daily for 5 consecutive days. The control group was not given Gly-Pro-Gly, whereas the second and third groups were given 0.5 mg and 5 mg Gly-Pro-Gly respectively. […]
Serum antibody responses to the TNP group were monitored by the ELISA technique performed on serum samples collected 2 weeks after the second injection. […]
ELISA assays were performed as follows. […] TNP-reactive antibodies were then detected by stepwise addition of enzyme labelled goat antibodies to mouse IgG1, IgG2a, IgG2b, IgG3 or IgM (all obtained from Southern Biotechnology Associates, Birmingham, Ala.) and enzyme substrate. Results are expressed as endpoint titer, the latter being defined as the reciprocal of the highest dilution of serum giving an ELISA absorbance value equal to 3 times that of control wells exposed to buffer alone but not serum.
On the technique in general: In an ELISA, binding on a coated surface is turned into a signal by an enzyme label.

The nature of series [3]: In vivo toxicity: growth of mice given intraperitoneal Gly-Pro-Gly. On the set-up: Mean weight of mice: unit not given here. The text has this:
In an in vivo test of the toxicity of Gly-Pro-Gly, groups of mice were given intraperitoneal injections of the substance starting at an age of 6 days. FIG. 3 also graphically depicts the results. […] The peptides are thus nontoxic even when given in large doses.

The subject of another series is HTLV-111B/H9 New York. Put plainly: Infectivity assay HTLV-IIIB/H9 New York: p24 ELISA (absorbance 454 nm of diluted supernatant), syncytia, immunofluorescence. Type of series: cell-based, HIV-1. The following applies: for # OF SYNCYTIA/WELL Day 14 / PERCENTAGE OF AG POS CELLS / p24 1/10 / p24 1/100 / p24 1/1,000: Table 6; for HIV infection by p24 synthesis and syncytia formation, in words: Tables 3-6.

Procedure for HTLV-111B/H9 New York: Virus at 100 50% tissue culture infectious doses (TCID50) and peptides at concentrations of 250 and 25 μg/ml were added to the cells simultaneously and incubated for 2 hours at 4° C. with frequent stirring. Subsequently, the temperature was increased to 37° C. and the mixtures were subjected to a second incubation for 2 hours. Following the second incubation, the cells were centrifuged at 325 x g and washed once in RPMI medium (Gibco Laboratories, N.Y.). Cells, at a concentration of 5×10^5 /ml, were then added to 24 multidish well plates at a final volume of 1.5 ml of growth medium (RPMI supplemented with 10% fetal calf serum (FCS), antibiotics and polybrene (2 μg/ml)), with the addition of peptides at dilutions of 250 or 25 μg/ml. […] As additional controls, two HIV infected cell cultures (designated pos. controls 1 and 2, Tables 3-5) and two uninfected cell cultures (designated neg. controls 1 and 2) were used.
Infected cells were continuously monitored for formation of syncytia and the growth medium supernatants were analyzed at days 9-12 p.i. for p24 antigen which is an indicator of HIV replication.
Briefly, the following protocol was used for detection of the p24 antigen. HIV p24 antigen was determined using a rabbit anti-p24 polyclonal antiserum as capture antibody and a biotinylated rabbit anti-p24 polyclonal antibody was used as detecting antibody in an avidin-horse radish peroxidase (HRP) ELISA. The sensitivity of the assay allowed detection of approximately 50 pg of p24 antigen per ml supernatant. […] Serial dilutions of the supernatants were made so as to detect p24 concentration in the most accurate range (<2.0 absorbance units).
The number of infected cells were then determined by indirect immunofluorescence using a human HIV positive serum diluted 1/100 and FITC conjugated antihuman IgG (Bio Merieux, France) diluted 1/200.
In tables 3-6, the p24 content of the supernatants of infected cells was determined by diluting the supernatants of infected cells in serial tenfold dilutions (1/10, 1/100, 1/1000 and 1/10,000) and analyzing in ELISA as described above. Results are indicated by the absorbance values (454nm) of respective dilutions.
In tables 8 and 9, the p24 content of the supernatants of infected cells was determined by diluting the supernatants in serial tenfold dilutions (1/10, 1/100, 1/1,000) and analyzing by ELISA as described in Example 2. Results are indicated by the absorbance values (454 nm) of respective dilutions.

As for `Nc1nc2c(ncn2COCCO)c(=O)[nH]1` [Acyclovir, acyclovir], the “capacity of HSV-1 to replicate in GMK cells, in words” value in series [1] is reported as “significantly reduced”.
Take `NCC(=O)N1CCC[C@H]1C(=O)NCC(N)=O` [Gly-Pro-Gly] (H-Gly-Pro-Gly-NH2): the “direct anti-proliferative properties on T cells” value in the series on normal T cells (doses as high as 20 μM) is “marginal if any”. Moreover, the “effect on normal T cell and B cell functions” value in the series with normal T cells (in vitro human, in vivo murine) was “no effect”. In series [2], the “humoral immune responsiveness of mice” value is on record as “do not appreciably influence”. For the same compound, the “Mean weight of mice” value in series [3] (Feb. 25, 0.001 g GPG i.p.) amounted to 5.66; in series [3] (Feb. 25, 0.1 g GPG i.p.) it was 4.98; in series [3] (Feb. 25, 1 g GPG i.p.), 5.62; in series [3] (Feb. 26, 0.001 g GPG i.p.) it was 6.24; in series [3] (Feb. 26, 0.1 g GPG i.p.), 5.54; in series [3] (Feb. 26, 1 g GPG i.p.), 6.27. The “Mean weight of mice” value in series [3] (Feb. 27, 0.001 g GPG i.p.) turned out to be 6.76; in series [3] (Feb. 27, 0.1 g GPG i.p.) it was 6.41; in series [3] (Feb. 27, 1 g GPG i.p.), 7.04; in series [3] (Feb. 28, 0.001 g GPG i.p.), 7.40; in series [3] (Feb. 28, 0.1 g GPG i.p.), 7.11; in series [3] (Feb. 28, 1 g GPG i.p.), 7.80. Also, the “Mean weight of mice” value came out at 7.83 in series [3] (March 1, 0.001 g GPG i.p.); 8.00 in series [3] (March 1, 0.1 g GPG i.p.); 8.61 in series [3] (March 1, 1 g GPG i.p.); 9.22 in series [3] (March 4, 0.001 g GPG i.p.); 9.35 in series [3] (March 4, 0.1 g GPG i.p.); 10.53 in series [3] (March 4, 1 g GPG i.p.). In addition, the “Mean weight of mice” value in series [3] (March 5, 0.001 g GPG i.p.) is listed as 9.63; in series [3] (March 5, 0.1 g GPG i.p.), 10.04; in series [3] (March 5, 1 g GPG i.p.) it was 11.22; in series [3] (March 6, 0.001 g GPG i.p.), 9.88; in series [3] (March 6, 0.1 g GPG i.p.), 10.35; in series [3] (March 6, 1 g GPG i.p.) it was 11.44. Also, the “Mean weight of mice” value in series [3] (March 7, 0.001 g GPG i.p.) was determined as 9.95; in series [3] (March 7, 0.1 g GPG i.p.), 11.17; in series [3] (March 7, 1 g GPG i.p.), 12.12; in series [3] (March 8, 0.001 g GPG i.p.), 10.30; in series [3] (March 8, 0.1 g GPG i.p.), 11.38; in series [3] (March 8, 1 g GPG i.p.) it was 12.69. In addition, the “Mean weight of mice” value in series [3] (March 15, 0.001 g GPG i.p., no injections 3/8-3/15) is listed as 16.59; in series [3] (March 15, 0.1 g GPG i.p., no injections 3/8-3/15) it was 17.46; in series [3] (March 15, 1 g GPG i.p., no injections 3/8-3/15), 19.85. Besides, the “influence on the growth of mice” value in series [3] (compared with controls) was “no significant influence”.
On to Gly-Pro-Ala, for which, in the series on HTLV-111B/H9 New York (25 μg/ml), the “# OF SYNCYTIA/WELL Day 14” value is recorded as 85, the “PERCENTAGE OF AG POS CELLS” value is given as 30-40%, the “p24 1/10” value is reported as > 2.0 and the “p24 1/100” value came out at 0.616. In the series on HTLV-111B/H9 New York (25 μg/ml), the “p24 1/1,000” value turned out to be 0.154. Further, in the series with HTLV-111B/H9 New York (250 μg/ml), the “# OF SYNCYTIA/WELL Day 14” value is listed as 20, the “PERCENTAGE OF AG POS CELLS” value was 20-30%, the “p24 1/10” value is listed as > 2.0 and the “p24 1/100” value was 0.299. Further, in the series with HTLV-111B/H9 New York (250 μg/ml), the “p24 1/1,000” value is 0.059. Besides, the “HIV infection by p24 synthesis and syncytia formation, in words” value in the series with HTLV-111B/H9 New York is recorded as “no inhibitory effect on HIV replication”.
Consider “Gly-Pro-Gly-Gly (GPGG; printed: Gly-Pro-Gly-Gly)”, for which, in the series with HTLV-111B/H9 New York (25 μg/ml), the “# OF SYNCYTIA/WELL Day 14” value is 15, the “PERCENTAGE OF AG POS CELLS” value is recorded as 25-30%, the “p24 1/10” value was 0.933 and the “p24 1/100” value worked out at 0.11. The “p24 1/1,000” value in the series with HTLV-111B/H9 New York (25 μg/ml) came to 0.016. In the series on HTLV-111B/H9 New York (250 μg/ml), the “# OF SYNCYTIA/WELL Day 14” value is recorded as 20, the “PERCENTAGE OF AG POS CELLS” value came out at 30%, the “p24 1/10” value was found to be 0.523 and the “p24 1/100” value is 0.052. Moreover, the “p24 1/1,000” value in the series with HTLV-111B/H9 New York (250 μg/ml) is 0.007. Besides, the “HIV infection by p24 synthesis and syncytia formation, in words” value in the series on HTLV-111B/H9 New York is on record as “no inhibitory effect on HIV replication”.
